# Assay results from patent US7034208B1, “Ahas inhibiting herbicide resistant wheat and method for selection thereof” (BASF Aktiengellschaft, priority 1991, dated 2006).
# Tests used:
# [1] = system: M3 wheat plants from selections FS1-FS4 and Fidel; experiment: M3 Plant Screen: In vivo (seed soak/preemergence application screen)
# Experimental: M3 plants from the four initial plant selections (labelled FS1, FS2, FS3 and FS4) are screened for PURSUIT™ resistance. Five M3 seeds from each mature infloresence of these initial M2 mutants are disinfested in 70% EtOH for 30 seconds followed by disinfestation in 50% solution containing 2.625% sodium hypochlorite (as described above) for 20 minutes under vacuum with gentle agitation provided by a stir plate. The seeds are rinsed two times in sterile distilled water.
# Each set of five seeds is then placed into 10 ml of a 1500 uM solution of PURSUIT™ in a sterile 60×15 mm plastic petri dish and soaked for three days. The seeds are rinsed with water, dried with paper towels and planted approximately ½″ deep in 6×8 inch peat flats containing moist, sterile Metro Mix 350™. These flats are sprayed preemergence with 300 g/ha of PURSUIT™. Controls include M3 seeds from each resistant selection which are disinfested as previously described, soaked in sterile distilled water for three days and then planted. In addition, unselected susceptible Fidel wheat is disinfested as described above and one-half of the seeds treated with PURSUIT™ (seed soak and spray procedure) and the other half are soaked in water alone. The herbicide is applied with a laboratory belt sprayer at a rate of 950 L/ha with a belt speed of 12.5 sec/rev using sprayer nozzle #40015E.
# Four weeks after receiving the initial seed soak, the M3 wheat plants are rated according to whether the plants are herbicide resistant, herbicide damaged or dead. The herbicide resistant plants are transplanted individually to 7.5 inch Azalea pots with Metro Mix 350™. A fertilizer, Osmocote™ (Sierra Company, Milpita, Calif.) is added as a top dressing one week after the plants are transplanted. In addition the plants are fertilized regularly with Peter's 20-20-20™ (Grace Company, Cambridge, Mass.). Individual plants are rated against Fidel untreated controls.
# [2] = system: F2 of intercrosses between wheat selections FS1-FS4; experiment: Genetic Condition Studies Experiment 5, allelism (Table 3); assay type: in vivo; conditions: 200 g/ha, after treatment
# Source text: Experiment 5: Crosses and reciprocal crosses are made between the four mutant wheat selections. The F1 seed from these crosses is planted and the plants allowed to self. The F2 seed is harvested and used in this experiment to determine allelism of the four selections. Whole-flats are filled with Metro Mix 350™ and are sown with 100 seeds per cross (four rows with 25 seeds/row). In addition a row of susceptible Fidel is sown in each flat. Three sources from each cross are used. When the seedlings reach the Z12 stage, the flats are sprayed with PURSUIT™ at 200 g/ha. The PURSUIT™ solution is applied as previously described. […]
# [3] = Control 2 = Susceptible wheat seed (Fidel) soaked in herbicide solution, three weeks
# [4] = FS1 M3, 1500 uM seed soak + 300 g/ha preemergence, three weeks after herbicide treatment
# [5] = FS2 M3, 1500 uM seed soak + 300 g/ha preemergence, three weeks after herbicide treatment
# [6] = FS3 M3, 1500 uM seed soak + 300 g/ha preemergence, three weeks after herbicide treatment
# [7] = FS4 M3, 1500 uM seed soak + 300 g/ha preemergence, three weeks after herbicide treatment
structure (smiles),measurement,setting,value
"CCc1cnc(C2=NC(C)(C(C)C)C(=O)N2)c(C(=O)O)c1 (stereo not drawn) [PURSUIT, 5-ethyl-2-(4-isopropyl-4-methyl-5-oxo-2-imidazolin-2-yl)-nicotinic acid]",No. of Plants (number of plants raised/number of seeds planted),[1]; Control 2 = Susceptible wheat seed (Fidel) soaked in herbicide solution,13/15
same,Ave. Shoot Height,[1]; [3],21.2 cm
same,Range Shoot Heights,[1]; [3],8-30 cm
same,No. of Plants (number of plants raised/number of seeds planted),"[1]; FS1 M3, 1500 uM seed soak + 300 g/ha preemergence",48/80
same,Ave. Shoot Height,[1]; [4],9.1 cm
same,Range Shoot Heights,[1]; [4],2-15 cm
same,germination frequency,"[1]; FS1 M3 seed, 1500 uM seed soak + 300 g/ha preemergence",60%
same,No. of Plants (number of plants raised/number of seeds planted),"[1]; FS2 M3, 1500 uM seed soak + 300 g/ha preemergence",36/80
same,Ave. Shoot Height,[1]; [5],11.7 cm
same,Range Shoot Heights,[1]; [5],5-18 cm
same,germination frequency,"[1]; FS2 M3 seed, 1500 uM seed soak + 300 g/ha preemergence",47.5%
same,No. of Plants (number of plants raised/number of seeds planted),"[1]; FS3 M3, 1500 uM seed soak + 300 g/ha preemergence",35/85
same,Ave. Shoot Height,[1]; [6],8.0 cm
same,Range Shoot Heights,[1]; [6],1-14.5 cm
same,germination frequency,"[1]; FS3 M3 seed, 1500 uM seed soak + 300 g/ha preemergence",41.2%
same,No. of Plants (number of plants raised/number of seeds planted),"[1]; FS4 M3, 1500 uM seed soak + 300 g/ha preemergence",44/85
same,Ave. Shoot Height,[1]; [7],21.1 cm
same,Range Shoot Heights,[1]; [7],5-28 cm
same,germination frequency,"[1]; FS4 M3 seed, 1500 uM seed soak + 300 g/ha preemergence",55%
same,survival,"[1]; non-mutagenized, non-selected Fidel seed, 1500 uM seed soak and 300 g/ha preemergent",does not survive
same,herbicide symptoms,"[1]; some M3 seedlings, progeny of FS4, 1500 uM seed soak + 300 g/ha preemergence","stunting, twisting and/or chlorotic striping"
same,Resist: number of plants resistant,[2]; F2 source (FS1/FS2)X-1,71
same,Suscept: number of plants susceptible,[2]; F2 source (FS1/FS2)X-1,1
same,Resist: number of plants resistant,[2]; F2 source (FS1/FS2)X-2,85
same,Suscept: number of plants susceptible,[2]; F2 source (FS1/FS2)X-2,2
same,Resist: number of plants resistant,[2]; F2 source (FS1/FS2)X-3,74
same,Suscept: number of plants susceptible,[2]; F2 source (FS1/FS2)X-3,1
same,Resist: number of plants resistant,[2]; F2 source (FS1/FS3)X-1,82
same,Suscept: number of plants susceptible,[2]; F2 source (FS1/FS3)X-1,0
same,Resist: number of plants resistant,[2]; F2 source (FS1/FS3)X-2,92
same,Suscept: number of plants susceptible,[2]; F2 source (FS1/FS3)X-2,0
same,Resist: number of plants resistant,[2]; F2 source (FS1/FS3)X-3,93
same,Suscept: number of plants susceptible,[2]; F2 source (FS1/FS3)X-3,0
same,Resist: number of plants resistant,[2]; F2 source (FS1/FS4)X-1,96
same,Suscept: number of plants susceptible,[2]; F2 source (FS1/FS4)X-1,0
same,Resist: number of plants resistant,[2]; F2 source (FS1/FS4)X-2,90
same,Suscept: number of plants susceptible,[2]; F2 source (FS1/FS4)X-2,0
same,Resist: number of plants resistant,[2]; F2 source (FS1/FS4)X-3,93
same,Suscept: number of plants susceptible,[2]; F2 source (FS1/FS4)X-3,2
same,Resist: number of plants resistant,[2]; F2 source (FS2/FS1)X-1,95
same,Suscept: number of plants susceptible,[2]; F2 source (FS2/FS1)X-1,0
same,Resist: number of plants resistant,[2]; F2 source (FS2/FS1)X-2,91
same,Suscept: number of plants susceptible,[2]; F2 source (FS2/FS1)X-2,0
same,Resist: number of plants resistant,[2]; F2 source (FS2/FS1)X-3,97
same,Suscept: number of plants susceptible,[2]; F2 source (FS2/FS1)X-3,0
same,Resist: number of plants resistant,[2]; F2 source (FS2/FS3)X-1,99
same,Suscept: number of plants susceptible,[2]; F2 source (FS2/FS3)X-1,0
same,Resist: number of plants resistant,[2]; F2 source (FS2/FS3)X-2,87
same,Suscept: number of plants susceptible,[2]; F2 source (FS2/FS3)X-2,1
same,Resist: number of plants resistant,[2]; F2 source (FS2/FS3)X-3,92
same,Suscept: number of plants susceptible,[2]; F2 source (FS2/FS3)X-3,0
same,Resist: number of plants resistant,[2]; F2 source (FS2/FS4)X-1,102
same,Suscept: number of plants susceptible,[2]; F2 source (FS2/FS4)X-1,0
same,Resist: number of plants resistant,[2]; F2 source (FS2/FS4)X-2,97
same,Suscept: number of plants susceptible,[2]; F2 source (FS2/FS4)X-2,0
same,Resist: number of plants resistant,[2]; F2 source (FS2/FS4)X-3,97
same,Suscept: number of plants susceptible,[2]; F2 source (FS2/FS4)X-3,1
same,Resist: number of plants resistant,[2]; F2 source (FS3/FS1)X-2,95
same,Suscept: number of plants susceptible,[2]; F2 source (FS3/FS1)X-2,0
same,Resist: number of plants resistant,[2]; F2 source (FS3/FS1)X-3,97
same,Suscept: number of plants susceptible,[2]; F2 source (FS3/FS1)X-3,0
same,Resist: number of plants resistant,[2]; F2 source (FS3/FS1)X-5,94
same,Suscept: number of plants susceptible,[2]; F2 source (FS3/FS1)X-5,1
same,Resist: number of plants resistant,[2]; F2 source (FS3/FS2)X-1,96
same,Suscept: number of plants susceptible,[2]; F2 source (FS3/FS2)X-1,0
same,Resist: number of plants resistant,[2]; F2 source (FS3/FS2)X-2,94
same,Suscept: number of plants susceptible,[2]; F2 source (FS3/FS2)X-2,0
same,Resist: number of plants resistant,[2]; F2 source (FS3/FS2)X-3,96
same,Suscept: number of plants susceptible,[2]; F2 source (FS3/FS2)X-3,0
same,Resist: number of plants resistant,[2]; F2 source (FS3/FS4)X-1,98
same,Suscept: number of plants susceptible,[2]; F2 source (FS3/FS4)X-1,0
same,Resist: number of plants resistant,[2]; F2 source (FS3/FS4)X-2,96
same,Suscept: number of plants susceptible,[2]; F2 source (FS3/FS4)X-2,0
same,Resist: number of plants resistant,[2]; F2 source (FS3/FS4)X-3,96
same,Suscept: number of plants susceptible,[2]; F2 source (FS3/FS4)X-3,0
same,Resist: number of plants resistant,[2]; F2 source (FS4/FS1)X-1,93
same,Suscept: number of plants susceptible,[2]; F2 source (FS4/FS1)X-1,1
same,Resist: number of plants resistant,[2]; F2 source (FS4/FS1)X-2,91
same,Suscept: number of plants susceptible,[2]; F2 source (FS4/FS1)X-2,0
same,Resist: number of plants resistant,[2]; F2 source (FS4/FS1)X-3,94
same,Suscept: number of plants susceptible,[2]; F2 source (FS4/FS1)X-3,1
same,Resist: number of plants resistant,[2]; F2 source (FS4/FS2)X-1,94
same,Suscept: number of plants susceptible,[2]; F2 source (FS4/FS2)X-1,0
same,Resist: number of plants resistant,[2]; F2 source (FS4/FS2)X-2,95
same,Suscept: number of plants susceptible,[2]; F2 source (FS4/FS2)X-2,1
same,Resist: number of plants resistant,[2]; F2 source (FS4/FS2)X-3,95
same,Suscept: number of plants susceptible,[2]; F2 source (FS4/FS2)X-3,0
same,Resist: number of plants resistant,[2]; F2 source (FS4/FS3)X-1,96
same,Suscept: number of plants susceptible,[2]; F2 source (FS4/FS3)X-1,0
same,Resist: number of plants resistant,[2]; F2 source (FS4/FS3)X-2,100
same,Suscept: number of plants susceptible,[2]; F2 source (FS4/FS3)X-2,0
same,Resist: number of plants resistant,[2]; F2 source (FS4/FS3)X-3,94
same,Suscept: number of plants susceptible,[2]; F2 source (FS4/FS3)X-3,0
same,Resist: number of plants resistant,[2]; Total of (FS1/FS2) sources,230
same,Suscept: number of plants susceptible,[2]; Total of (FS1/FS2) sources,4
same,Resist: number of plants resistant,[2]; Total of (FS1/FS3) sources,267
same,Suscept: number of plants susceptible,[2]; Total of (FS1/FS3) sources,0
same,Resist: number of plants resistant,[2]; Total of (FS1/FS4) sources,279
same,Suscept: number of plants susceptible,[2]; Total of (FS1/FS4) sources,2
same,Resist: number of plants resistant,[2]; Total of (FS2/FS1) sources,283
same,Suscept: number of plants susceptible,[2]; Total of (FS2/FS1) sources,0
same,Resist: number of plants resistant,[2]; Total of (FS2/FS3) sources,278
same,Suscept: number of plants susceptible,[2]; Total of (FS2/FS3) sources,1
same,Resist: number of plants resistant,[2]; Total of (FS2/FS4) sources,296
same,Suscept: number of plants susceptible,[2]; Total of (FS2/FS4) sources,1
same,Resist: number of plants resistant,[2]; Total of (FS3/FS1) sources,286
same,Suscept: number of plants susceptible,[2]; Total of (FS3/FS1) sources,1
same,Resist: number of plants resistant,[2]; Total of (FS3/FS2) sources,286
same,Suscept: number of plants susceptible,[2]; Total of (FS3/FS2) sources,0
same,Resist: number of plants resistant,[2]; Total of (FS3/FS4) sources,290
same,Suscept: number of plants susceptible,[2]; Total of (FS3/FS4) sources,0
same,Resist: number of plants resistant,[2]; Total of (FS4/FS1) sources,278
same,Suscept: number of plants susceptible,[2]; Total of (FS4/FS1) sources,2
same,Resist: number of plants resistant,[2]; Total of (FS4/FS2) sources,284
same,Suscept: number of plants susceptible,[2]; Total of (FS4/FS2) sources,1
same,Resist: number of plants resistant,[2]; Total of (FS4/FS3) sources,290
same,Suscept: number of plants susceptible,[2]; Total of (FS4/FS3) sources,0
